The subject of assay [1] is Human platelet cyclic AMP phosphodiesterase. Briefly: Cyclic AMP phosphodiesterase assay (human platelet). The class given is biochemical. To be noted: for pIC50: human platelet phosphodiesterase, 1 μM cyclic AMP as substrate; for Relative Potency: relative to theophylline (assigned a value of 1) on human platelet phosphodiesterase. How it is done: (§1) The inhibition of cyclic AMP phosphodiesterase activity by the subject compounds was assayed by the method of Filburn and Karn, Analyt. Biochem., 52:505-516 (1973), using 1 μM cyclic AMP as the substrate. Human platelet cyclic AMP phosphodiesterase was obtained from human donors. Platelets were isolated and washed by centrifugation, the membranes ruptured by a sequential freeze-thaw procedure and hypotonic lysis and the soluble enzyme isolated by high speed centrifugation. The enzyme was stored in aliquots at -20° C.
(§2) This table contains the IC50 values for human platelet phosphodiesterase and IC25 values for rat heart phosphodiesterase.

In assay [2] the test system is rat heart phosphodiesterase. Briefly: Cyclic AMP phosphodiesterase inhibition (rat heart). The assay is classed as biochemical. How it is done: as §1, §2
The next assay relates to Mongrel dogs. Briefly: Inotropic activity in anesthetized dogs. The class given is in vivo. As to conditions: dog. How it is done:
Mongrel dogs were anesthetized intravenously with 35 mg/Kg sodium pentobarbital and supplemented as needed. Blood pressure was measured with a Statham pressure transducer via a cannula inserted from a femoral artery into the abdominal aorta. Heart rate was recorded by a cardiotachometer from a lead II electrocardiogram. Right ventricular contractile force was recorded from a Walton-Brodie strain gauge sutured to the right ventricle following a midsternal thoracotomy. A Harvard respirator was used to ventilate the dogs with room air through an endotracheal tube. The dog was bilaterally vagotomized. Following a midline laparotomy, a cannula was sutured into the duodenum for intraduodenal administration of test compound. A femoral vein was cannulated for administration of isoproterenol. All data were recorded on a Beckman R611 Dynograph.
To assess the responsiveness of each dog, isoproterenol was given intravenously at half-log interval doses from 0.007 to 2.1 or 6.67 μg/Kg. The test compound was then administered intraduodenally, usually at a low dose of 2 mg/Kg and subsequently at higher doses of 6.32 and/or 20 mg/Kg, if necessary. In a few instances, some compounds administered intraduodenally at dose levels from 0.316 to 3.16 mg/Kg.

A word on the pIC50: it is the negative decadic logarithm of the IC50, by convention in mol/L.

pIC50: −log10 of the molar value. Bounds are passed on as bounds.

`CN(C(=O)CCCOc1ccc2c(c1)CN1CC(=O)NC1=N2)C1CCCCCC1` [N-cycloheptyl-N-methyl-4-(2-oxo-1,2,3,5-tetrahydroimidazo[2,1-b]quinazolin-7-yl)oxybutyramide]: in assay [1], the pIC50 is 9.00 and the “Relative Potency” value was 270,000. Moreover, the “Rat Heart IC25” value in assay [2] is less than 10 nM.

Take `CC(=O)OCCN(C(=O)CCCOc1ccc2c(c1)CN1CC(=O)NC1=N2)C1CCCCC1` [N-cyclohexyl-N-(acetoxyethyl)-4-(2-oxo-1,2,3,5-tetrahydroimidazo[2,1-b]quinazolin-7-yl)oxybutyramide]: in assay [1], the pIC50 was 8.85 and the “Relative Potency” value was 193,000.

Consider `CN(C(=O)CCCCCOc1ccc2c(c1)CN1CC(=O)NC1=N2)C1CCCCC1` [N-cyclohexyl-N-methyl-6-(2-oxo-1,2,3,5-tetrahydroimidazo[2,1-b]quinazolin-7-yl)oxyhexanamide], for which, in assay [1], the pIC50 is 7.92 and the “Relative Potency” value is 22,500. Also, the “Rat Heart IC25” value in assay [2] is recorded as 21 nM.

With `CN(C(=O)CCCOc1cccc2c1N=C1NC(=O)CN1C2)C1CCCCC1` [N-cyclohexyl-N-methyl-4-(2-oxo-1,2,3,5-tetrahydroimidazo[2,1-b]quinazolin-9-yl)oxybutyramide], in assay [1], the pIC50 is less than 5.00 and the “Relative Potency” value is reported as less than 2.7.

With `CN(C(=O)CCCOc1ccc2c(c1)CN1CC(=O)NC1=N2)C(c1ccccc1)c1ccccc1` [N-diphenylmethyl-N-methyl-4-(2-oxo-1,2,3,5-tetrahydroimidazo[2,1-b]quinazolin-7-yl)oxybutyramide], in assay [1], the negative-log IC50 (pIC50) was 7.82 and the “Relative Potency” value was 18,000. Further, the “Rat Heart IC25” value in assay [2] is given as 60 nM.

As for `COCCN(C(=O)CCCOc1ccc2c(c1)CN1CC(=O)NC1=N2)C1CCCCC1` [N-cyclohexyl-N-(2-methoxyethyl)-4-(2-oxo-1,2,3,5-tetrahydroimidazo[2,1-b]quinazolin-7-yl)oxybutyramide], in assay [1], the pIC50 was 8.89 and the “Relative Potency” value is on record as 208,000. For the same molecule, the “Rat Heart IC25” value in assay [2] was less than 10 nM.

Regarding `CN(C(=O)CCCOc1ccc2c(c1)CN1CC(=O)NC1=N2)c1ccccc1` [N--methyl-N--phenyl (n = 3, position 7), N-phenyl-N-methyl-4-(2-oxo-1,2,3,5-tetrahydroimidazo[2,1-b]quinazolin-7-yl)oxybutyramide], in assay [1], the pIC50 was 7.59 and the “Relative Potency” value is recorded as 10,400. Also, in assay [2], the “Rat Heart IC25” value is listed as 350 nM.

Regarding `CN(C(=O)CCCOc1ccc2c(c1)CN1C(=N2)NC(=O)[C@@H]1CO)C1CCCCC1` [N-cyclohexyl-N-methyl-4-(2-oxo-3-L-hydroxymethyl-1,2,3,5-tetrahydroimidazo[2,1-b]quinazolin-7-yl)oxybutyramide], in assay [1], the pIC50 is 7.56 and the “Relative Potency” value was 9,800. Also, the “Rat Heart IC25” value in assay [2] is 90 nM.

With `O=C1CN2Cc3cc(OCCCC(=O)N(CCO)C4CCCCC4)ccc3N=C2N1` [N-cyclohexyl-N-(2-hydroxyethyl)-4-(2-oxo-1,2,3,5-tetrahydroimidazo[2,1-b]quinazolin-7-yl)oxybutyramide], in assay [1], the pIC50 was 7.90 and the “Relative Potency” value was 21,600. Further, the “Rat Heart IC25” value in assay [2] is reported as 70 nM.

With `O=C1CN2Cc3cc(OCCCC(=O)N(Cc4ccccc4)Cc4ccccc4)ccc3N=C2N1` [N,N--dibenzyl (n = 3, position 7), N,N-dibenzyl-4-(2-oxo-1,2,3,5-tetrahydroimidazo[2,1-b]quinazolin-7-yl)oxybutyramide], in assay [1], the pIC50 was 8.04 and the “Relative Potency” value is listed as 29,300. Moreover, the “Rat Heart IC25” value in assay [2] was 60 nM.

With `CN(C(=O)CCCOc1ccc2c(c1)CN1C(=N2)NC(=O)[C@H]1CO)C1CCCCC1` [N-cyclohexyl-N-methyl-4-(2-oxo-3-D-hydroxymethyl-1,2,3,5-tetrahydroimidazo[2,1-b]quinazolin-7-yl)oxybutyramide], in assay [1], the pIC50 is 7.73 and the “Relative Potency” value is 14,600. The “Rat Heart IC25” value in assay [2] came out at 72 nM.

`O=C1CN2Cc3cc(OCCCC(=O)N(CCOC(=O)c4ccccc4)C4CCCCC4)ccc3N=C2N1` [N-cyclohexyl-N-(benzoyloxyethyl)-4-(2-oxo-1,2,3,5-tetrahydroimidazo[2,1-b]quinazolin-7-yl)oxybutyramide]: in assay [1], the pIC50 is 9.03 and the “Relative Potency” value is recorded as 287,000.

As to `CN(C(=O)CCCOc1ccc2c(c1)N=C1NC(=O)CN1C2)C1CCCCC1` [N-cyclohexyl-N-methyl-4-(2-oxo-1,2,3,5-tetrahydroimidazo[2,1-b]quinazolin-8-yl)oxybutyramide], in assay [1], the pIC50 was 6.82 and the “Relative Potency” value is 1,800.

As to `CN(C(=O)CCCCCCOc1ccc2c(c1)CN1CC(=O)NC1=N2)C1CCCCC1` [N-cyclohexyl-N-methyl-7-(2-oxo-1,2,3,5-tetrahydroimidazo[2,1-b]quinazolin-7-yl)oxyheptanamide], in assay [1], the pIC50 was 7.80 and the “Relative Potency” value is given as 16,800. The “Rat Heart IC25” value in assay [2] came out at 45 nM.

Take `CC(C)N(C(=O)CCCOc1ccc2c(c1)CN1CC(=O)NC1=N2)C1CCCCC1` [N-cyclohexyl-N-isopropyl-4-(2-oxo-1,2,3,5-tetrahydroimidazo[2,1-b]quinazolin-7-yl)oxybutyramide]: in assay [1], the pIC50 was 8.49 and the “Relative Potency” value is on record as 84,000. Besides, the “Rat Heart IC25” value in assay [2] was determined as 15 nM.

Regarding `CN(C(=O)CCCCOc1ccc2c(c1)CN1CC(=O)NC1=N2)C1CCCCC1` [N-cyclohexyl-N-methyl-5-(2-oxo-1,2,3,5-tetrahydroimidazo[2,1-b]quinazolin-7-yl)oxypentanamide], in assay [1], the pIC50 is 8.34 and the “Relative Potency” value is given as 58,700. In assay [2], the “Rat Heart IC25” value amounted to 22 nM.

For `O=C1CN2Cc3cc(OCCCC(=O)N(C4CCCCC4)C4CCCCC4)ccc3N=C2N1` [N,N--dicyclohexyl (n = 3, position 7), N,N-dicyclohexyl-4-(2-oxo-1,2,3,5-tetrahydroimidazo[2,1-b]quinazolin-7-yl)oxybutyramide], in assay [1], the pIC50 is 8.85 and the “Relative Potency” value is 186,000. Besides, the “Rat Heart IC25” value in assay [2] is 16 nM.

In the case of `CN(Cc1ccccc1)C(=O)CCCOc1ccc2c(c1)CN1CC(=O)NC1=N2` [N--methyl-N--benzyl (n = 3, position 7), N-benzyl-N-methyl-4-(2-oxo-1,2,3,5-tetrahydroimidazo[2,1-b]quinazolin-7-yl)oxybutyramide], in assay [1], the pIC50 is 7.59 and the “Relative Potency” value was 10,400. The “Rat Heart IC25” value in assay [2] stood at 240 nM.

Consider `CN(C(=O)COc1ccc2c(c1)CN1CC(=O)NC1=N2)C1CCCCC1` [N-cyclohexyl-N-methyl-2-(2-oxo-1,2,3,5-tetrahydroimidazo[2,1-b]quinazolin-7-yl)oxyacetamide], for which, in assay [1], the negative logarithm of the IC50 (pIC50) is 6.09 and the “Relative Potency” value came out at 330. Also, the “Rat Heart IC25” value in assay [2] is 4,400 nM.

In the case of `CN(C(=O)CCCOc1cccc2c1CN1CC(=O)NC1=N2)C1CCCCC1` [N-cyclohexyl-N-methyl-4-(2-oxo-1,2,3,5-tetrahydroimidazo[2,1-b]quinazolin-6-yl)oxybutyramide], in assay [1], the negative-log IC50 (pIC50) is 5.70 and the “Relative Potency” value stood at 135.

In the case of `O=C1CN2Cc3cc(OCCCC(=O)N4CCCCC4CC(C4CCCCC4)C4CCCCC4)ccc3N=C2N1` (racemic) [perhexylenyl (n = 3, position 7), perhexylenyl-4-(2-oxo-1,2,3,5-tetrahydroimidazo[2,1-b]quinazolin-7-yl)oxybutyramide], in assay [1], the pIC50 is 8.74 and the “Relative Potency” value is recorded as 146,000. In addition, the “Rat Heart IC25” value in assay [2] is listed as 36 nM.

Regarding `C[C@H]1C(=O)NC2=Nc3ccc(OCCCC(=O)N(C)C4CCCCC4)cc3CN21` [N-cyclohexyl-N-methyl-4-(2-oxo-3-L-methyl-1,2,3,5-tetrahydroimidazo[2,1-b]quinzolin-7-yl)oxybutyramide], the “Blood Pressure, peak effect as % of max. isoproterenol” value in the assay with Mongrel dogs (i.v., 0.1 mg/kg) is listed as 97%; with Mongrel dogs (intraduodenal, 0.316 mg/kg) it was 17%; in the assay with Mongrel dogs (intraduodenal, 1.0 mg/kg) it was 54%; with Mongrel dogs (intraduodenal, 3.16 mg/kg), 94%. For the same molecule, the “Heart Rate, peak effect as % of max. isoproterenol” value came to 55% in the assay with Mongrel dogs (i.v., 0.1 mg/kg); 11% in the assay with Mongrel dogs (intraduodenal, 0.316 mg/kg); 44% with Mongrel dogs (intraduodenal, 1.0 mg/kg); 58% with Mongrel dogs (intraduodenal, 3.16 mg/kg). Further, the “Rt. Ventricular Contractile Force, peak effect as % of max. isoproterenol” value in the assay with Mongrel dogs (i.v., 0.1 mg/kg) is given as 32%; in the assay on Mongrel dogs (intraduodenal, 0.316 mg/kg), 23%; in the assay with Mongrel dogs (intraduodenal, 1.0 mg/kg), 69%; in the assay on Mongrel dogs (intraduodenal, 3.16 mg/kg), 55%.

As for `CC(C)C(=O)OCCN(C(=O)CCCOc1ccc2c(c1)CN1CC(=O)NC1=N2)C1CCCCC1`, in assay [1], the pIC50 is 8.96 and the “Relative Potency” value was 245,000.

On to `CC(C)(C)C(=O)OCCN(C(=O)CCCOc1ccc2c(c1)CN1CC(=O)NC1=N2)C1CCCCC1`, for which, in assay [1], the negative logarithm of the IC50 (pIC50) is 9.00 and the “Relative Potency” value is on record as 270,000.

The values are drawn from patent US4663320A, “(2-oxo-1,2,3,5-tetrahydroimidazo[2,1-b]quinoazolinyl)oxyalkylamides, compositions and the use thereof” (Syntex (U.S.A.) Inc., priority 1985, dated 1987).
